Measured values published in patent US11033473B2, “Hair restoration/growth stimulating agent” (Kinjirushi Co., Ltd., priority 2015, dated 2021).
Like-named read-outs stand apart in the source and are kept apart here.

What was measured:
[1] = tested on: human hair follicle dermal papilla cells; assay: Evaluation of human hair follicle dermal papilla cell-activating action (Living Cell Count Reagent SF, ABS/hr); assay type: cell-based; conditions: for cell-activating action vs 0.1% DMSO experimental section: 100 μmol/L
Method: After one-day culturing in the carbon dioxide incubator, the cells were transferred to a follicle dermal papilla cell proliferation medium in which isosaponarin was dissolved at final concentrations of 0.1 μmol/L, 10 μmol/L, and 1000 μmol/L. Then, the cells were cultured for one day and three days, and proliferation of each cell was compared using Living Cell Count Reagent SF. After the one-day and three-day culturing were completed, the supernatant culture was removed, and the cells were washed with PBS. After washing with PBS, a medium containing 10% Living Cell Count Reagent SF at 300 μL/well was added. The culture supernatant at 100 μL/well was transferred to another 96-well plate 30 and 90 minutes after the addition. Absorbance was measured at a microplate reader (measuring wavelength 450 nm, reference wavelength 595 nm). […] The experiment was carried out five times. A non-addition control section was used as a comparison control section of isosaponarin.
As a positive control, the same test was carried out also for the case of adding adenosine (Cat. No. 016-10493, distributed by Wako Pure Chemical Industries, Ltd.) at final concentration of 100 μmol/L and minoxidil (Cat. No. M4145-25MG, distributed by Sigma-Aldrich Japan Co., Ltd.) at final concentration of 30 μmol/L. Adenosine was dissolved in dimethyl sulfoxide (DMSO) and added to a test medium at final concentration of 0.1% DMSO. As a solvent control, 0.1% DMSO experimental section was provided. Minoxidil was dissolved in ethanol and added to a test medium at final concentration of 0.1% ethanol. […] Thus, a non-addition control section was used for a comparison control section of minoxidil.
Significance test was performed in the comparison experimental section. The test was carried out as Student T-test. It is determined that there is significance when P<0.05 (less than 5% if null hypothesis is true), as described in the figures.
A 100 mmol/L stock solution of adenosine (positive control substance) was prepared using DMSO as a solvent, and added to a test medium at final concentration of 100 μmol/L (0.1% DMSO experimental section was used as a solvent control). A 15 mmol/L stock solution of minoxidil was prepared with 50% ethanol, and added to a test medium at final concentration of 30 μmol/L. Since solvent (ethanol) concentration in this case is 0.2%, 0.2% ethanol experimental section was used as the control section.
Since the concentration of the solvent in the highest concentration of each test substance is 0.1% or less, it is determined that there is no influence of the solvent in the present test, and a non-addition control section was used as a reference in comparison of significant difference. The test was conducted as a Student T-test.
(§1) Thereafter, the cells were cultured for three days, and proliferation of each cell is compared using Living Cell Count Reagent SF. The experiment was carried out five times. After three-days culturing was completed, supernatant liquid of the culture was collected and a VEGF production amount of the supernatant was measured by ELISA kit as in Example 2.
Further, the supernatant was removed. The cells were washed with PBS, and a medium containing 10% Living Cell Count Reagent SF (300 μL/well) was then added. 100 μL per well of the culture supernatant 30 and 90 minutes after the addition was transferred to another 96-well plate and absorbance was measured with a microplate reader (measuring wavelength 450 nm, reference wavelength 595 nm).

VEGF = VEGF production promoting action in human hair follicle dermal papilla cells (ELISA of culture supernatant); assay type: cell-based
Method: An amount of VEGF in a culture supernatant treated with isosaponarin for three days on human hair follicle dermal papilla cells was measured using ELISA kit for (product name: Human VEGF Quantikine ELISA, Cat. No. DVE00, distributed by R&D Systems, Inc.) The supernatant at the time of three-day culturing in the above section (1-3) was used as the culture supernatant treated with isosaponarin for three days. Specifically, in the above section (1-3), in order to measure absorbance, the culture supernatant was removed three days after addition of isosaponarin. In an evaluation test of VEGF production promoting action, the culture supernatant was collected three days after the addition of isosaponarin, and the supernatant was used as a sample. The experiment was carried out five times.
Hereinafter, a method of measuring VEGF will be described in detail. For the measurement of VEGF, the stock solution was used without diluting the supernatant.
Procedure 1-1. On the basis of a VEGF standard stock solution (2000 pg/mL), VEGF standard solutions of 1000, 500, 250, 125, 62.5, 31.2, and 15.6 pg/mL were prepared using a reaction buffer.
Procedure 1-2. Each of the VEGF standard solutions and 200 μL of sample (culture supernatant) were added to a VEGF immobilized microplate in which 50 μL of dilution was added to each well, and allowed to react at room temperature for 2 hours (primary reaction).
Procedure 1-3. The solutions in the wells were removed and the wells were washed 3 times with washing solution.
Procedure 1-4. 200 μL of horseradish peroxidase-conjugated VEGF antibody solution was added to each well and allowed to react for 2 hours at room temperature (secondary reaction).
Procedure 1-5. The solutions in the wells were removed and the wells were washed 3 times with the washing solution.
Procedure 1-6. 200 μL of substrate solution was added to each well and allowed to react for 20 minutes at room temperature.
Procedure 1-7. 50 μL of reaction stop solution was added to each well. After one minute mixing in a plate mixer, absorbance of each well was measured with a plate reader (measuring wavelength 450 nm).
Procedure 1-8. From a standard curve, VEGF concentration in the sample was calculated.
A non-addition control section was used as a comparison control section of isosaponarin.
As a positive control, the same experiment was performed to the case of adding minoxidil having final concentration of 30 μmol/L as well. A non-addition control section was used as a comparison control section of minoxidil.
as §1

[2] = tested on: human hair follicle dermal papilla cells; assay: Evaluation of human hair follicle dermal papilla cell-activating action (Living Cell Count Reagent SF, ABS/hr); assay type: cell-based; conditions: Example 7, three days
[3] = tested on: human hair follicle dermal papilla cells; assay: Cytotoxicity test using human hair follicle dermal papilla cells; conditions: three-day culture; for concentration showing toxicity to human hair follicle dermal papilla cells: FIGS. 5-7
Method: (§2) Human hair follicle dermal papilla cells (Cat. No. CA60205a, Lot No. 2548, derived from person, distributed by Toyobo Co., Ltd.), which are widely used in efficacy evaluation of a hair restoration agent, were used as test cells. The human hair follicle dermal papilla cells were cultured in a carbon dioxide incubator (5% CO2, 37° C.) using a follicle dermal papilla cell proliferation medium (Cat. No. TMTPGM-250, distributed by Toyobo Co., Ltd.) A flask used for the culture was coated with collagen I before use. For cell passage, cells were separated from the flask using a follicle dermal papilla cell dedicated subculture set (Cat. No. CA090K, distributed by Toyobo Co., Ltd.)
(§3) The human hair follicle dermal papilla cells were seeded in a collagen I-coated 96-well plate at 5×10^3 cells/well (0.1 mL/well in this test). After one-day culturing (50% confluent) in the carbon dioxide incubator (5% CO2, 37° C.), the cells were transferred to a test medium containing isosaponarin, and then cultured for three days. Cell proliferation was compared using Living Cell Count Reagent SF (Cat. No. 07553, distributed by Nacalai Tesque, Inc.) In consideration of possible influence on absorbance by precipitates adhering to the cells in absorbance measurement in living cell count, the culture supernatant was removed after the end of the three-day culturing, and the cells were washed with a phosphate-buffered saline (PBS). After washing with PBS, 100pL per well of a medium containing 10% of Living Cell Count Reagent SF was added. Absorbance (measurement wavelength 450 nm, reference wavelength 595 nm) of the culture supernatant was measured 30 minutes and 90 minutes after the addition. An amount of change (ABS/hr) in absorbance ABS per hour was calculated from values at 90 minutes and 30 minutes. The experiment was carried out three times.

FGF-7 gene = FGF-7 gene expression in human hair follicle dermal papilla cells (real-time PCR); assay type: cell-based; conditions: cultured for two hours
Method: Then, the cells are cultured for two hours, and total RNA was recovered and reverse transcribed into cDNA. Thereafter, FGF-7 gene expression was measured by real-time PCR. Using GAPDH gene as an internal reference, FGF-7 gene expression was calculated as a relative value of the negative control section. The experiment was carried out three times. Details of each procedure are shown below.
First, collection of total RNA from the cells and cDNA synthesis were carried out according to the steps of FastLane Cell RT-PCR kit.
Step 7-1. 500 μL per well of buffer FCW was added to the cells washed with PBS, and the buffer FCW was immediately removed and aspirated.
Step 7-2. 200 μL per well of the buffer FCP was added. After incubation for 5 minutes at room temperature (25° C.), FastLane lysate was transferred to a 96-well PCR tube. The tube was stored at −80° C. until the next cDNA synthesis.
Step 7-3. Lysate in Step 7-2 was dissolved at room temperature. 2 μL of gDNA Wipeout Buffer, 1μL of FastLane lysate and 11 μL of RNase-free water were added to a new PCR tube, caused to react for 5 minutes at 42° C., and then transferred immediately to ice. (In fact, an appropriate amount of master mix of gDNA Wipeout Buffer and RNase-free water was added to the tube containing lysate.)
Step 7-4. 6 μL of the reverse transcription reaction master mix was added to 14 μL of reaction solution obtained in Step 7-3 and incubated for 30 minutes at 42° C. (1 μL of Quantiscript Reverse Transcriptase, 4 μL of Quantiscript RT Buffer, 1 μL of RT Primer Mix/tube).
Step 7-5. The reaction solution was treated for 3 minutes at 95° C., to inactivate the reverse transcriptase. […]
The relative expression level of each gene was calculated as follows. From an intersection of an amplification curve of each gene and a threshold line of each gene, a Ct value (the number of PCR cycles) was calculated. ΔCt value is obtained by subtracting a Ct value of the internal reference GAPDH gene from a Ct value of the target gene (Ct values (target gene)−Ct (GAPDH2)=ΔCt value). […]

[4] = tested on: human hair follicle dermal papilla cells
Method: as §2, §3

[5] = Example 7, 0.1 μmol/L, three days

Compound: Nc1cc(N2CCCCC2)nc(N)[n+]1[O-] [minoxidil, 6-(1-piperidinyl)-2,4-pyrimidinediamine-3-oxide, reference compound]
- cell-activating action vs non-addition control section ([1]; Example 1, 30 μmol/L, one-day processing period): slightly more significant cell-activating action
- cell-activating action vs non-addition control section ([1]; Example 1, 30 μmol/L, three-day processing period): more significant cell-activating action
- amount of VEGF vs non-addition control section (VEGF; Example 2, 30 μmol/L, treated for three days, FIG. 4): significantly increased
- amount of VEGF vs 0.2% ethanol experimental section (VEGF; Example 7, 30 μmol/L, three days, FIG. 9): more significantly increased
- cell-activating action vs 0.2% ethanol experimental section ([2]; 30 μmol/L, FIG. 8): more significant cell-activating action

Compound: O=c1cc(-c2ccc(O[C@@H]3O[C@H](CO)[C@@H](O)[C@H](O)[C@H]3O)cc2)oc2cc(O)c([C@@H]3O[C@H](CO)[C@@H](O)[C@H](O)[C@H]3O)c(O)c12 [isosaponarin, 4′-(β-D-glucopyranosyloxy)-5,7-dihydroxy-6-β-D-glucopyranosylflavone]
- cell-activating action vs non-addition control section ([1]; Example 1, 0.1 μmol/L to 1000 μmol/L, one-day processing period, FIG. 2): slightly more significant cell-activating action
- cell-activating action vs non-addition control section ([1]; Example 1, 0.1 μmol/L to 1000 μmol/L, three-day processing period, FIG. 3): more significant cell-activating action
- cell-activating action relative to the action in the case of treating with minoxidil ([1]; Example 1, three-day processing period, minoxidil 30 μmol/L): about three times
- amount of VEGF vs non-addition control section (VEGF; Example 2, 1000 μmol/L, treated for three days, FIG. 4): significantly increased
- concentration showing no toxicity to human hair follicle dermal papilla cells ([3]; FIG. 1): ≤ 1000 µM

Compound: coumaric acid
- FGF-7 gene expression vs non-addition control section (FGF-7 gene; 0.001 μmol/L, FIG. 10): more significantly elevated
- FGF-7 gene expression vs non-addition control section (FGF-7 gene; 0.01 μmol/L): did not show any significance
- concentration showing toxicity to human hair follicle dermal papilla cells [4]: ≥ 2000 µM
- cell-activating action vs non-addition control section ([2]; 0.01 μmol/L): did not show significance
- cell-activating action vs non-addition control section ([2]; 0.1 μmol/L, FIG. 8): more significant cell-activating action
- cell-activating action vs non-addition control section ([2]; 10 μmol/L): did not show significance

Compound: Nc1ncnc2c1ncn2[C@@H]1O[C@H](CO)[C@@H](O)[C@H]1O [adenosine, reference compound]
- cell-activating action vs 0.1% DMSO experimental section ([1]; Example 1, three-day processing period): more significant cell-activating action
- cell-activating action vs 0.1% DMSO experimental section ([1]; Example 7, three days, FIG. 8): more significant cell-activating action
- amount of VEGF vs 0.1% DMSO experimental section (VEGF; Example 7, 100 μmol/L, three days, FIG. 9): significantly increased the amount of VEGF on human hair follicle dermal papilla cell slightly more
- FGF-7 gene expression vs 0.1% DMSO experimental section (FGF-7 gene; 100 μmol/L, FIG. 10): more significantly elevated FGF-7 gene expression

Compound: O=c1cc(-c2ccc(O)cc2)oc2cc(O)cc(O)c12 [apigenin, 2-(4-hydroxyphenyl)-5-hydroxy-7-hydroxy-4H-1-benzopyran-4-one]
- amount of VEGF vs non-addition control section (VEGF; Example 7, 0.001 μmol/L to 0.01 μmol/L, three days, FIG. 9): increased more significantly
- amount of VEGF vs non-addition control section (VEGF; [5]): no significance
- cell-activating action vs non-addition control section ([2]; 0.001 μmol/L to 1 μmol/L, FIG. 8): more significant cell-activating action
- cell-activating action vs non-addition control section ([2]; 10 μmol/L): no significance
- concentration showing toxicity to human hair follicle dermal papilla cells [3]: ≥ 80 µM

Compound: COC(=O)/C=C/c1ccc(O)c(O)c1 [caffeic acid methyl ester]
- amount of VEGF vs non-addition control section (VEGF; [5]): did not show any significance
- amount of VEGF vs non-addition control section (VEGF; Example 7, 1 μmol/L, three days, FIG. 9): increased more significantly
- amount of VEGF vs non-addition control section (VEGF; Example 7, 10 μmol/L, three days): did not show any significance
- concentration showing toxicity to human hair follicle dermal papilla cells [3]: ≥ 16 µM
